PMC4917279 (Journal of Medicinal Chemistry, 2016)

What was measured:
Assay type in all cases: binding
MKK7 = target: T1, MKK7 (Homo sapiens, UniProt O14733); assay: KINOMEscan; conditions: read-out: %Ctrl @ 1000 nM
T1 construct: purchased DiscoveRx KINOMEscan

ADCK3 = target: T2, ADCK3 (Homo sapiens, UniProt Q8NI60); assay: KINOMEscan; conditions: read-out: %Ctrl @ 1000 nM
T2 construct: purchased DiscoveRx KINOMEscan

PKNB(M.tuberculosis) = target: T3, PKNB(M.tuberculosis) (Mycobacterium tuberculosis, UniProt P9WI81); assay: biochemical; conditions: read-out: %Ctrl @ 1000 nM
T3 construct: purchased DiscoveRx KINOMEscan
T3 sequence (P9WI81 whole entry): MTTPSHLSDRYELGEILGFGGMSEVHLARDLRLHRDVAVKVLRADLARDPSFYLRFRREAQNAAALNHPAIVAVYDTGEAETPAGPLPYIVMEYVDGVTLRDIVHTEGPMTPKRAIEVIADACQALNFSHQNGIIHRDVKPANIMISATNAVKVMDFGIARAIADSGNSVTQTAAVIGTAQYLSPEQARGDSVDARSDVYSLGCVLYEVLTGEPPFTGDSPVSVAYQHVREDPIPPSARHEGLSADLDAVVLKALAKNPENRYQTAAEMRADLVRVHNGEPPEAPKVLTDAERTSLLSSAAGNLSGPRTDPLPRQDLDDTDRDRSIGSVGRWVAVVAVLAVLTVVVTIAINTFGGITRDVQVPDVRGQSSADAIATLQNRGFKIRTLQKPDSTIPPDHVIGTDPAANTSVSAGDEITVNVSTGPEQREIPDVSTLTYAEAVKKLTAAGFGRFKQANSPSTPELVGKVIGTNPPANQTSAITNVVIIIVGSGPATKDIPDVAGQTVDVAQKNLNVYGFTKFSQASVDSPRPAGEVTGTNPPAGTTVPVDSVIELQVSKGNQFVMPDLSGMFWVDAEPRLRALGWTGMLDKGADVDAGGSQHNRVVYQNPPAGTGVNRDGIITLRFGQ

ROCK1 = target: T4, ROCK1 (Homo sapiens, UniProt Q13464); assay: KINOMEscan; conditions: read-out: %Ctrl @ 1000 nM
T4 construct: purchased DiscoveRx KINOMEscan

QSK = target: T5, QSK (Homo sapiens, UniProt Q9Y2K2); assay: KINOMEscan; conditions: read-out: %Ctrl @ 1000 nM
T5 construct: purchased DiscoveRx KINOMEscan

KIT-autoinhibited = target: T6, KIT-autoinhibited (Homo sapiens, UniProt P10721); assay: KINOMEscan; conditions: read-out: %Ctrl @ 1000 nM
T6 construct: purchased DiscoveRx KINOMEscan

DYRK1B = target: T7, DYRK1B (Homo sapiens, UniProt Q9Y463); assay: KINOMEscan; conditions: read-out: %Ctrl @ 1000 nM
T7 construct: purchased DiscoveRx KINOMEscan

FGFR1 = target: T8, FGFR1 (Homo sapiens, UniProt P11362); assay: KINOMEscan; conditions: read-out: %Ctrl @ 1000 nM
T8 construct: purchased DiscoveRx KINOMEscan

MARK2 = target: T9, MARK2 (Homo sapiens, UniProt Q7KZI7); assay: KINOMEscan; conditions: read-out: %Ctrl @ 1000 nM
T9 construct: purchased DiscoveRx KINOMEscan

RET(M918T) = target: T10, RET(M918T) (Homo sapiens, UniProt P07949, M918T); assay: KINOMEscan; conditions: read-out: %Ctrl @ 1000 nM
T10 construct: purchased DiscoveRx KINOMEscan

p38-beta = target: T11, p38-beta (Homo sapiens, UniProt Q15759); assay: KINOMEscan; conditions: read-out: %Ctrl @ 1000 nM
T11 construct: purchased DiscoveRx KINOMEscan

NEK7 = target: T12, NEK7 (Homo sapiens, UniProt Q8TDX7); assay: KINOMEscan; conditions: read-out: %Ctrl @ 1000 nM
T12 construct: purchased DiscoveRx KINOMEscan

EGFR(E746-A750del) = target: T13, EGFR(E746-A750del) (Homo sapiens, UniProt P00533, DEL746-750); assay: KINOMEscan; conditions: read-out: %Ctrl @ 1000 nM
T13 construct: purchased DiscoveRx KINOMEscan

PIK3CA(H1047Y) = target: T14, PIK3CA(H1047Y) (Homo sapiens, UniProt P42336, H1047Y); assay: KINOMEscan; conditions: read-out: %Ctrl @ 1000 nM
T14 construct: purchased DiscoveRx KINOMEscan

DDR1 = target: T15, DDR1 (Homo sapiens, UniProt Q08345); assay: KINOMEscan; conditions: read-out: %Ctrl @ 1000 nM
T15 construct: purchased DiscoveRx KINOMEscan

FLT3(K663Q) = target: T16, FLT3(K663Q) (Homo sapiens, UniProt P36888, K663Q); assay: KINOMEscan; conditions: read-out: %Ctrl @ 1000 nM
T16 construct: purchased DiscoveRx KINOMEscan

YSK4 = target: T17, YSK4 (Homo sapiens, UniProt Q56UN5); assay: KINOMEscan; conditions: read-out: %Ctrl @ 1000 nM
T17 construct: purchased DiscoveRx
T17 sequence (Q56UN5 whole entry): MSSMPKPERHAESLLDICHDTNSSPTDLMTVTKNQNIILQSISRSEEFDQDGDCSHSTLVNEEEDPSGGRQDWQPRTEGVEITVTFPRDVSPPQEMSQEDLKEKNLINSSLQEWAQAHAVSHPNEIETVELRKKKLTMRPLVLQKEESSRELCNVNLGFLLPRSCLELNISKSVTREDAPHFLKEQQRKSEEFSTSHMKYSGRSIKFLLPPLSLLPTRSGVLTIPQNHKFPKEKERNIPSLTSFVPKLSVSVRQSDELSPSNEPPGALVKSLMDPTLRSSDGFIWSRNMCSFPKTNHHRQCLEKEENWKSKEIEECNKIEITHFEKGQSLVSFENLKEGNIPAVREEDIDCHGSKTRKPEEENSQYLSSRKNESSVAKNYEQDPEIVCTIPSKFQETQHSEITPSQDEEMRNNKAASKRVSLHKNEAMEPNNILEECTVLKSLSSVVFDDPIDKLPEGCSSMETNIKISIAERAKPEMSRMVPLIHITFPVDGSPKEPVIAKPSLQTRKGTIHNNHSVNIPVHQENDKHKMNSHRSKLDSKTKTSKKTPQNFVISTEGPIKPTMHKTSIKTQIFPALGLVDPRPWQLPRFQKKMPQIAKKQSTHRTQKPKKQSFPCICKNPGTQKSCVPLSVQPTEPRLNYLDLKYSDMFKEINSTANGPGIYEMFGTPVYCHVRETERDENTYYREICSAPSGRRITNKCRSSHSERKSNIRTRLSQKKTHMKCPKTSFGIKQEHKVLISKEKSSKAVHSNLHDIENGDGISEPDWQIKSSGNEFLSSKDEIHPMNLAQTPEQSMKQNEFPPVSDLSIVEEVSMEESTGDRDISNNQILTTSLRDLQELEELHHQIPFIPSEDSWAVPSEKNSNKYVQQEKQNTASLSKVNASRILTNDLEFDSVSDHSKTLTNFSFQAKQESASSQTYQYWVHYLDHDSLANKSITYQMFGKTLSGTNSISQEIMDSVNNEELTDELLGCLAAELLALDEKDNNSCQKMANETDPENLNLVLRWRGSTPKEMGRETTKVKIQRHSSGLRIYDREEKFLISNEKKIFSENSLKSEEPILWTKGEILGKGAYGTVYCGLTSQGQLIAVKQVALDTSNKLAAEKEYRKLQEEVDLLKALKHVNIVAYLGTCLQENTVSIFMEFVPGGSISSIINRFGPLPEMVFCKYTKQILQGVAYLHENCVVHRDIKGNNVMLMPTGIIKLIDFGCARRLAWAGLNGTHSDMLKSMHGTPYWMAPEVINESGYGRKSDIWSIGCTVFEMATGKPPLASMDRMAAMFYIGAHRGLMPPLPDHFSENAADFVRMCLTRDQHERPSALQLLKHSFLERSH

CDKL1 = target: T18, CDKL1 (Homo sapiens, UniProt Q00532); assay: KINOMEscan; conditions: read-out: %Ctrl @ 1000 nM
T18 construct: purchased DiscoveRx KINOMEscan
T18 sequence (Q00532 whole entry): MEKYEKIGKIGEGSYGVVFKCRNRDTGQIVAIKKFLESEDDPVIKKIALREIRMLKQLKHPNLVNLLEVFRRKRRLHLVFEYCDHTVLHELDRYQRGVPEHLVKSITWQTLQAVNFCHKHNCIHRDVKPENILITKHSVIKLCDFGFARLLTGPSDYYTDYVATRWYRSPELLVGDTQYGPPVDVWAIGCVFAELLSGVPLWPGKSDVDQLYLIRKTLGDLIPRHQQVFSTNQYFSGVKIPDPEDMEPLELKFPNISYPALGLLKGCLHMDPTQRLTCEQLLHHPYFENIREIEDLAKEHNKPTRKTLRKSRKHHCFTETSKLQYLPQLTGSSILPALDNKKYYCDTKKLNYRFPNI

LIMK1 = target: T19, LIMK1 (Homo sapiens, UniProt P53667); assay: KINOMEscan; conditions: read-out: %Ctrl @ 1000 nM
T19 construct: purchased DiscoveRx KINOMEscan

PAK3 = target: T20, PAK3 (Homo sapiens, UniProt O75914); assay: KINOMEscan; conditions: read-out: %Ctrl @ 1000 nM
T20 construct: purchased DiscoveRx KINOMEscan

WEE1 = target: T21, WEE1 (Homo sapiens, UniProt P30291); assay: KINOMEscan; conditions: read-out: %Ctrl @ 1000 nM
T21 construct: purchased DiscoveRx KINOMEscan

PKAC-alpha = target: T22, PKAC-alpha (Homo sapiens, UniProt P17612); assay: KINOMEscan; conditions: read-out: %Ctrl @ 1000 nM
T22 construct: purchased DiscoveRx KINOMEscan

FRK = target: T23, FRK (Homo sapiens, UniProt P42685); assay: KINOMEscan; conditions: read-out: %Ctrl @ 1000 nM
T23 construct: purchased DiscoveRx KINOMEscan

KIT(V559D,V654A) = target: T24, KIT(V559D,V654A) (Homo sapiens, UniProt P10721, V559D/V654A); assay: KINOMEscan; conditions: read-out: %Ctrl @ 1000 nM
T24 construct: purchased DiscoveRx KINOMEscan

MST2 = target: T25, MST2 (Homo sapiens, UniProt Q13188); assay: KINOMEscan; conditions: read-out: %Ctrl @ 1000 nM
T25 construct: purchased DiscoveRx KINOMEscan

MLK3 = target: T26, MLK3 (Homo sapiens, UniProt Q16584); assay: KINOMEscan; conditions: read-out: %Ctrl @ 1000 nM
T26 construct: purchased DiscoveRx KINOMEscan

STK36 = target: T27, STK36 (Homo sapiens, UniProt Q9NRP7); assay: KINOMEscan; conditions: read-out: %Ctrl @ 1000 nM
T27 construct: purchased DiscoveRx KINOMEscan

FGR = target: T28, FGR (Homo sapiens, UniProt P09769); assay: KINOMEscan; conditions: read-out: %Ctrl @ 1000 nM
T28 construct: purchased DiscoveRx KINOMEscan

CLK1 = target: T29, CLK1 (Homo sapiens, UniProt P49759); assay: KINOMEscan; conditions: read-out: %Ctrl @ 1000 nM
T29 construct: purchased DiscoveRx KINOMEscan

ZAK = target: T30, ZAK (Homo sapiens, UniProt Q9NYL2); assay: KINOMEscan; conditions: read-out: %Ctrl @ 1000 nM
T30 construct: purchased DiscoveRx

EGFR(G719C) = target: T31, EGFR(G719C) (Homo sapiens, UniProt P00533, G719C); assay: KINOMEscan; conditions: read-out: %Ctrl @ 1000 nM
T31 construct: purchased DiscoveRx KINOMEscan
T31 sequence (P00533 25-1210 G719C): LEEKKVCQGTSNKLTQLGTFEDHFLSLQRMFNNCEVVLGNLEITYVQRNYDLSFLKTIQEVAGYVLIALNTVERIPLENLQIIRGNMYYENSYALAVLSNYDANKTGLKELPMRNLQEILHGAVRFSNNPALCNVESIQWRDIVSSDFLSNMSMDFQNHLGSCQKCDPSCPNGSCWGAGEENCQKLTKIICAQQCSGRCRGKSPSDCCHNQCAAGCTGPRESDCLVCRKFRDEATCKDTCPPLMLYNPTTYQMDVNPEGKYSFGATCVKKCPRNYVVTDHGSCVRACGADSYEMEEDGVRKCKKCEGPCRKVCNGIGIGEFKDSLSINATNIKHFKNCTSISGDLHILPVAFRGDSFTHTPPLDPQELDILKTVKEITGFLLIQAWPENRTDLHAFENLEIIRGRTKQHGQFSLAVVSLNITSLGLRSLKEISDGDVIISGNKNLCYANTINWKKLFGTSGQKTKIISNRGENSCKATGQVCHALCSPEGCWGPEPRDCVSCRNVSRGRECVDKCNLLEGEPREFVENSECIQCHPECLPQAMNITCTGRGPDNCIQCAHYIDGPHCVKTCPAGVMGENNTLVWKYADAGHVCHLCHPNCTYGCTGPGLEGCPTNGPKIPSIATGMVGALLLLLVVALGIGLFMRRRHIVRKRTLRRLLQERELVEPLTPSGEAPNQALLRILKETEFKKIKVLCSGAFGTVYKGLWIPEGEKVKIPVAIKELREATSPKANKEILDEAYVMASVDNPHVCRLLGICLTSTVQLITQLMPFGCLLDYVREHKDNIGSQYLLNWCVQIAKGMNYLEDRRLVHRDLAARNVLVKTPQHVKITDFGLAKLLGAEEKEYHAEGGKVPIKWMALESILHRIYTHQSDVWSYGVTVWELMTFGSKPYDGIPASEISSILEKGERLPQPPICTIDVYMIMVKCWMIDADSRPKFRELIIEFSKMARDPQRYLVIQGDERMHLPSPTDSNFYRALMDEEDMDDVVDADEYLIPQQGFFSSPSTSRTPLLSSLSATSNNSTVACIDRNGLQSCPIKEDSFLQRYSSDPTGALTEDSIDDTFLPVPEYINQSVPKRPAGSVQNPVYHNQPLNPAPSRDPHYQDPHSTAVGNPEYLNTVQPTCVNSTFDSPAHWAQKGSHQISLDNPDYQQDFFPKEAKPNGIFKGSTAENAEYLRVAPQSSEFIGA

[1] = target: T32, ABL1(E255K)-phosphorylated (Homo sapiens, UniProt P00519, E255K); assay: KINOMEscan; conditions: read-out: %Ctrl @ 1000 nM
T32 construct: purchased DiscoveRx (KINOMEscan service)

TGFBR2 = target: T33, TGFBR2 (Homo sapiens, UniProt P37173); assay: KINOMEscan; conditions: read-out: %Ctrl @ 1000 nM
T33 construct: purchased DiscoveRx KINOMEscan

CDK4-cyclinD1 = target: T34, CDK4-cyclinD1 (Homo sapiens, UniProt P11802); assay: KINOMEscan; conditions: read-out: %Ctrl @ 1000 nM
T34 construct: purchased DiscoveRx KINOMEscan

EGFR(T790M) = target: T35, EGFR(T790M) (Homo sapiens, UniProt P00533, T790M); assay: KINOMEscan; conditions: read-out: %Ctrl @ 1000 nM
T35 construct: purchased DiscoveRx KINOMEscan

AURKC = target: T36, AURKC (Homo sapiens, UniProt Q9UQB9); assay: KINOMEscan; conditions: read-out: %Ctrl @ 1000 nM
T36 construct: purchased DiscoveRx KINOMEscan
T36 sequence (Q9UQB9 whole entry): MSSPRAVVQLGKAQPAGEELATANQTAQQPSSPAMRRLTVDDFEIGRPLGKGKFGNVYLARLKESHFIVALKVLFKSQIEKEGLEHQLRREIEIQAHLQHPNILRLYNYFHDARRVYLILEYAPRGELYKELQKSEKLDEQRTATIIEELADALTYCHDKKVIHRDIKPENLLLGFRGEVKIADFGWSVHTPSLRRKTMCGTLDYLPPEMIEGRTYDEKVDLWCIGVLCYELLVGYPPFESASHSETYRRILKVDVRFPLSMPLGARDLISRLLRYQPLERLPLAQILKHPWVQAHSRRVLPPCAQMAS

FLT3(D835H) = target: T37, FLT3(D835H) (Homo sapiens, UniProt P36888, D835H); assay: KINOMEscan; conditions: read-out: %Ctrl @ 1000 nM
T37 construct: purchased DiscoveRx KINOMEscan

CDK8 = target: T38, CDK8 (Homo sapiens, UniProt P49336); assay: KINOMEscan; conditions: read-out: %Ctrl @ 1000 nM
T38 construct: purchased DiscoveRx KINOMEscan
T38 sequence (P49336 whole entry): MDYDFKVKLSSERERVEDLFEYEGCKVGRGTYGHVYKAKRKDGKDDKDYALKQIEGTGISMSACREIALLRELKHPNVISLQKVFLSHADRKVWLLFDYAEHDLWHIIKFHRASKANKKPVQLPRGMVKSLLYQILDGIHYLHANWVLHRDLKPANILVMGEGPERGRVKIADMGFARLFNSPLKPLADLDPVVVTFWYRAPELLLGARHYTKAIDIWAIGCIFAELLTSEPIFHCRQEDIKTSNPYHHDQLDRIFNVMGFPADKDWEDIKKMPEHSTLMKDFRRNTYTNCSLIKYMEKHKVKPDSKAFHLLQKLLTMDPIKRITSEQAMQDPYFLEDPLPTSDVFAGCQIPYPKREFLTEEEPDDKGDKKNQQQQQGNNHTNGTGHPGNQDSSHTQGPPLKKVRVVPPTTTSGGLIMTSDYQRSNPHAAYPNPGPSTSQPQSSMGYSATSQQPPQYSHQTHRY

LRRK2 = target: T39, LRRK2 (Homo sapiens, UniProt Q5S007); assay: KINOMEscan; conditions: read-out: %Ctrl @ 1000 nM
T39 construct: purchased DiscoveRx KINOMEscan

FLT3(ITD) = assay: KINOMEscan
PIK3CA(E545K) = target: T40, PIK3CA(E545K) (Homo sapiens, UniProt P42336, E545K); assay: KINOMEscan; conditions: read-out: %Ctrl @ 1000 nM
T40 construct: purchased DiscoveRx KINOMEscan

ERK2 = target: T41, ERK2 (Homo sapiens, UniProt P28482); assay: KINOMEscan; conditions: read-out: %Ctrl @ 1000 nM
T41 construct: purchased DiscoveRx KINOMEscan

ACVR2A = target: T42, ACVR2A (Homo sapiens, UniProt P27037); assay: KINOMEscan; conditions: read-out: %Ctrl @ 1000 nM
T42 construct: purchased DiscoveRx
T42 sequence (P27037 20-513): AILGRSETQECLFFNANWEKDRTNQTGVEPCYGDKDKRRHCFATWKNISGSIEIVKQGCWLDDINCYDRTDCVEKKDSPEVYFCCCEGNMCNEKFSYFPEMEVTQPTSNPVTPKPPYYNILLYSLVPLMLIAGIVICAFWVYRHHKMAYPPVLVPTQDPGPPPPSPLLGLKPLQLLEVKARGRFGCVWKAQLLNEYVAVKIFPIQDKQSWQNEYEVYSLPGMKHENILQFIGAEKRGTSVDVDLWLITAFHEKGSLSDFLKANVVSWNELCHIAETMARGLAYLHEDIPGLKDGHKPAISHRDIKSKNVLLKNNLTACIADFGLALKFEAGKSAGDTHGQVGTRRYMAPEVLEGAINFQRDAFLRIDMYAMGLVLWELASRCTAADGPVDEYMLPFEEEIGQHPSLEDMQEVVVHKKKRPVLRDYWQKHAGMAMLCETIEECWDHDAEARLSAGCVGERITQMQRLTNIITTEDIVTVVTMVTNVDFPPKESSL

`CCN(C(=O)CO)[C@H]1CN(/C(=N\C#N)Nc2cccc(OC(F)F)c2)N=C1c1ccc(Cl)c(Cl)c1` [(S)-4] was tested. Which remaining binding at 1 µM (MKK7) did it give?
Its remaining binding at 1 µM is 99%.

And the remaining binding at 1 µM (ADCK3)?
The remaining binding at 1 µM was 98%.

And the remaining activity at 1 µM (PKNB(M.tuberculosis))?
The remaining activity at 1 µM was 88%.

What about the remaining binding at 1 µM (ROCK1) of the same molecule?
Its remaining binding at 1 µM is 98%.

What about the remaining binding at 1 µM (QSK) of the same molecule?
Its remaining binding at 1 µM is 94%.

What about the remaining binding at 1 µM (KIT-autoinhibited) of the same molecule?
The remaining binding at 1 µM was 90%.

What about the remaining binding at 1 µM (DYRK1B) of the same molecule?
The remaining binding at 1 µM was 74%.

What about the remaining binding at 1 µM (FGFR1) of the same molecule?
Its remaining binding at 1 µM is 59%.

And the remaining binding at 1 µM (MARK2)?
The remaining binding at 1 µM was 99%.

And the remaining binding at 1 µM (RET(M918T))?
The remaining binding at 1 µM was 80%.

What about the remaining binding at 1 µM (p38-beta) of the same molecule?
Its remaining binding at 1 µM is 100%.

And the remaining binding at 1 µM (NEK7)?
The remaining binding at 1 µM was 100%.

And the remaining binding at 1 µM (EGFR(E746-A750del))?
The remaining binding at 1 µM was 66%.

And the remaining binding at 1 µM (PIK3CA(H1047Y))?
Its remaining binding at 1 µM is 92%.

What about the remaining binding at 1 µM (DDR1) of the same molecule?
Its remaining binding at 1 µM is 96%.

And the remaining binding at 1 µM (FLT3(K663Q))?
Its remaining binding at 1 µM is 100%.

And the remaining binding at 1 µM (YSK4)?
Its remaining binding at 1 µM is 93%.

What about the remaining binding at 1 µM (CDKL1) of the same molecule?
Its remaining binding at 1 µM is 76%.

What about the remaining binding at 1 µM (LIMK1) of the same molecule?
Its remaining binding at 1 µM is 100%.

What about the remaining binding at 1 µM (PAK3) of the same molecule?
The remaining binding at 1 µM was 100%.

And the remaining binding at 1 µM (WEE1)?
Its remaining binding at 1 µM is 100%.

What about the remaining binding at 1 µM (PKAC-alpha) of the same molecule?
Its remaining binding at 1 µM is 74%.

And the remaining binding at 1 µM (FRK)?
The remaining binding at 1 µM was 77%.

What about the remaining binding at 1 µM (KIT(V559D,V654A)) of the same molecule?
Its remaining binding at 1 µM is 100%.

And the remaining binding at 1 µM (MST2)?
The remaining binding at 1 µM was 88%.

And the remaining binding at 1 µM (MLK3)?
Its remaining binding at 1 µM is 69%.

And the remaining binding at 1 µM (STK36)?
Its remaining binding at 1 µM is 81%.

And the remaining binding at 1 µM (FGR)?
The remaining binding at 1 µM was 100%.

And the remaining binding at 1 µM (CLK1)?
Its remaining binding at 1 µM is 78%.

What about the remaining binding at 1 µM (ZAK) of the same molecule?
Its remaining binding at 1 µM is 95%.

And the remaining binding at 1 µM (EGFR(G719C))?
The remaining binding at 1 µM was 86%.

What about the remaining binding at 1 µM [1] of the same molecule?
The remaining binding at 1 µM was 85%.

What about the remaining binding at 1 µM (TGFBR2) of the same molecule?
The remaining binding at 1 µM was 59%.

What about the remaining binding at 1 µM (CDK4-cyclinD1) of the same molecule?
The remaining binding at 1 µM was 93%.

What about the remaining binding at 1 µM (EGFR(T790M)) of the same molecule?
Its remaining binding at 1 µM is 86%.

What about the remaining binding at 1 µM (AURKC) of the same molecule?
The remaining binding at 1 µM was 77%.

And the remaining binding at 1 µM (FLT3(D835H))?
Its remaining binding at 1 µM is 93%.

What about the remaining binding at 1 µM (CDK8) of the same molecule?
The remaining binding at 1 µM was 92%.

What about the remaining binding at 1 µM (LRRK2) of the same molecule?
Its remaining binding at 1 µM is 100%.

What about the “%Ctrl @ 1000 nM” value (FLT3(ITD)) of the same molecule?
Its value is 91%.

What about the remaining binding at 1 µM (PIK3CA(E545K)) of the same molecule?
Its remaining binding at 1 µM is 71%.

And the remaining binding at 1 µM (ERK2)?
Its remaining binding at 1 µM is 98%.

And the remaining binding at 1 µM (ACVR2A)?
Its remaining binding at 1 µM is 100%.
